Some test systems named below: SNB-19 CNS; SW-620 colon; K-562 leukemia; MDA-MB-231 breast; MDA-MB-435; RXF 393 renal; HOP-92 NSCLC; HCC-2998 colon.
What all share (test): NCI anticancer screen, dose series, 48 h

The values below come from PubChem BioAssay (NCI).

Several values for one entry are separate records, joined by “and”; a condition that tells them apart may be missing. Identical values can stand only once.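 Values below derive from 48-hour exposures of cells grown in 96-well plates, with endpoints linearly interpolated between the two concentrations bracketing the appropriate inhibition level. GI50 marks 50% less growth. TGI: concentration producing complete growth inhibition.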

Turning to `NC(Cc1c[nH]c2ccc([N+](=O)[O-])cc12)C(=O)O` (stereo unspecified), the TGI in the test with SNB-19 CNS, in the test on SW-620 colon, in the test on K-562 leukemia, with MDA-MB-231 breast, in the test with MDA-MB-435 and in the test with RXF 393 renal was greater than 100 µM in each case.
For `COc1cc([N+](=O)[O-])c(S(=O)(=O)O)cc1-n1nc(C(=O)Nc2ccccc2)n[n+]1-c1cc(S(=O)(=O)[O-])c([N+](=O)[O-])cc1OC`, the TGI in the test with SNB-19 CNS, in the test on HOP-92 NSCLC, in the test on SW-620 colon, in the test on K-562 leukemia and in the test on MDA-MB-435 was greater than 100 µM in each case.
As to `CCCc1nc(Cl)c(Cl)c(Cl)n1`, the TGI with SNB-19 CNS was greater than 96.4 µM; in the test on HOP-92 NSCLC it was greater than 61.7 µM; in the test with SW-620 colon, greater than 52.2 µM; in the test on K-562 leukemia, greater than 45.9 µM; with MDA-MB-231 breast, 67.9 µM; in the test with MDA-MB-435 it was greater than 62 µM. Moreover, in the test with RXF 393 renal, the TGI is 56.4 µM.
Regarding `O=C(Nc1cc(Cl)cc(Cl)c1)c1cccc(NC2=C(Cl)C(=O)N(Cc3ccccc3)C2=O)c1`, the GI50 in the test with SNB-19 CNS was 54 µM; in the test with HCC-2998 colon it was 37.1 µM; with HOP-92 NSCLC, 18.9 µM; in the test on K-562 leukemia, 7.89 µM; in the test with MDA-MB-435, 21.8 µM; in the test on RXF 393 renal it was 18.9 µM. The TGI with SNB-19 CNS is greater than 100 µM; in the test with HCC-2998 colon, greater than 100 µM; in the test with HOP-92 NSCLC it was 85.7 µM; in the test on K-562 leukemia, greater than 100 µM; in the test with MDA-MB-435, 88.1 µM; in the test with RXF 393 renal, greater than 100 µM.
Turning to `CN(C)Cc1ccc(NC(=O)c2cncc(C#Cc3cnc(N)c4ncccc34)c2)cc1F`, the GI50 in the test on HCC-2998 colon was 9.83 µM; in the test on HOP-92 NSCLC, 4.53 µM; in the test with SW-620 colon, 2.23 µM; in the test on K-562 leukemia it was 0.0566 µM; in the test on MDA-MB-231 breast, 1.6 µM; in the test on MDA-MB-435, 1.64 µM. Further, the TGI stood at 29.3 µM in the test with HCC-2998 colon; 21.6 µM in the test on HOP-92 NSCLC; 4 µM in the test with SW-620 colon; 1.85 µM in the test on K-562 leukemia; 3.13 µM in the test with MDA-MB-231 breast; 3.14 µM with MDA-MB-435.
For `CCCCOc1ccc(/C=N/Nc2cc(C)nc3ccc(Br)cc23)cc1`, the GI50 in the test on SNB-19 CNS is 1.86 µM; with HCC-2998 colon, 2.12 µM; in the test with HOP-92 NSCLC, 1.54 µM; in the test with K-562 leukemia, 1.71 µM; in the test on MDA-MB-231 breast, 1.88 µM; in the test on MDA-MB-435, 1.8 µM. Also, the GI50 in the test on RXF 393 renal is 1.6 µM. In addition, the TGI in the test with SNB-19 CNS is 3.41 µM; in the test on HCC-2998 colon it was 3.73 µM; with HOP-92 NSCLC, 3.11 µM; in the test on K-562 leukemia it was 3.97 µM; in the test with MDA-MB-231 breast, 3.51 µM; in the test on MDA-MB-435 it was 3.27 µM. This molecule also yielded a TGI with RXF 393 renal of 3.05 µM.
`COc1ccc(-c2cn(-c3ccc(OC)c(OC)c3)c(=O)[nH]2)cc1`: the GI50 in the test on SNB-19 CNS is greater than 100 µM; with HCC-2998 colon, greater than 100 µM; in the test with HOP-92 NSCLC, greater than 100 µM; with SW-620 colon it was greater than 100 µM; in the test with K-562 leukemia it was 37.4 µM; with MDA-MB-231 breast it was greater than 100 µM. Also, in the test with MDA-MB-435, the GI50 is 50.2 µM. Moreover, the TGI in the test with SNB-19 CNS, in the test with HCC-2998 colon, in the test with HOP-92 NSCLC, in the test on SW-620 colon, with K-562 leukemia and in the test on MDA-MB-231 breast was greater than 100 µM throughout. The TGI in the test on MDA-MB-435 is greater than 100 µM.
Take `COc1cc2ncnc(Nc3ccc(Oc4ccnc(C)c4)c(C)c3)c2cc1NC(=O)CC1CCSS1` (stereo unspecified): the GI50 in the test with SNB-19 CNS is 1.08 µM; in the test with HOP-92 NSCLC, 3.75 µM; with SW-620 colon, 1.14 µM; in the test with K-562 leukemia, 0.253 µM; with MDA-MB-231 breast, 0.895 µM; with MDA-MB-435, 0.976 µM. The GI50 in the test on RXF 393 renal is 1.5 µM. Besides, the TGI with SNB-19 CNS came to 2.49 µM; in the test on HOP-92 NSCLC, 23.1 µM; with SW-620 colon, 2.71 µM; with K-562 leukemia, 1.18 µM; in the test on MDA-MB-231 breast it was 1.98 µM; in the test on MDA-MB-435 it was 2.48 µM. In the test with RXF 393 renal, this molecule showed a TGI greater than 50 µM.
In the case of `O=C(Nc1ccccc1)OC1OC(COC(=O)c2ccccc2)C(OC(=O)c2ccccc2)C1OS(=O)(=O)c1ccc([N+](=O)[O-])cc1` (stereo unspecified), the TGI with SNB-19 CNS, in the test on HCC-2998 colon, in the test with HOP-92 NSCLC, in the test with SW-620 colon, in the test on K-562 leukemia and in the test with MDA-MB-435 was greater than 100 µM each time. Further, the TGI in the test with RXF 393 renal was greater than 100 µM.
Take `O=C(c1ccc([N+](=O)[O-])cc1)C(Br)C(Br)c1ccnc2ccccc12` (stereo unspecified): the TGI with SNB-19 CNS was 30.8 µM; in the test with HOP-92 NSCLC it was 28.8 µM; in the test on SW-620 colon, 5.61 µM; in the test with K-562 leukemia it was greater than 33.3 µM; in the test with MDA-MB-231 breast it was 27.8 µM; in the test on MDA-MB-435 it was 7.85 µM. Further, in the test with RXF 393 renal, the TGI is 21.2 µM.
`COc1ccc2c(c1)/C(=C\c1c(-c3cc(OC)ccc3OC)nc3sccn13)C(=O)N2`: the GI50 was 1.72 µM with SNB-19 CNS; 1.76 µM in the test with HOP-92 NSCLC; 5.88 µM in the test on K-562 leukemia; 3.32 µM with MDA-MB-231 breast; 2.05 µM and 14.3 µM with MDA-MB-435; 1.77 µM in the test with RXF 393 renal. For the same molecule, the TGI with SNB-19 CNS was 3.54 µM; in the test on HOP-92 NSCLC, 3.47 µM; in the test with MDA-MB-231 breast, 14.2 µM; with MDA-MB-435, 4.6 µM and 39 µM; in the test with RXF 393 renal it was 3.93 µM.
Regarding `COc1cc2c3c(n(CCCNCCCNCCN)c(=O)c2cc1OC)-c1cc2c(cc1C3=O)OCO2`, the GI50 in the test on SNB-19 CNS was 53.9 µM; with HOP-92 NSCLC it was 39.7 µM; with SW-620 colon it was 30.8 µM; in the test on MDA-MB-231 breast, 28.8 µM; in the test on MDA-MB-435, 38 µM; with RXF 393 renal, greater than 100 µM. Besides, the TGI in the test on SNB-19 CNS, in the test with HOP-92 NSCLC, in the test on SW-620 colon, in the test on MDA-MB-231 breast, in the test with MDA-MB-435 and in the test with RXF 393 renal was greater than 100 µM each time.
Take `NCCCNc1nc2ccccc2c2c(=O)c3cccc(Cl)c3sc12`: the GI50 with HCC-2998 colon is 1.48 µM; in the test on HOP-92 NSCLC it was 1.19 µM; in the test on MDA-MB-231 breast, 1.18 µM; in the test on MDA-MB-435, 1.73 µM; in the test with RXF 393 renal it was 1.47 µM. The TGI turned out to be 2.98 µM with HCC-2998 colon; 2.63 µM in the test on HOP-92 NSCLC; 2.56 µM with MDA-MB-231 breast; 3.12 µM in the test with MDA-MB-435; 2.83 µM in the test on RXF 393 renal.
